The values below come from patent US8846949B2, “Pyrrolopyrazoles as N-type calcium channel blockers” (Janssen Pharmaceutica NV, priority 2012, dated 2014).

For test [1], the target named is T1, N-type calcium channel α1B (Cav2.2), β3 and α2δ subunits (Homo sapiens, UniProt Q00975).
T1 construct: expressed in transfected cells
Nature of the test: Functional assay, antagonism of N-type calcium channel (FDSS calcium mobilization response to KCl depolarization). As to conditions: HEK stable cell line; 50 mM KCl depolarization; six-point concentration-response. The format is cell-based. The essentials: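 HEK cells stably co-expressing α1B (Cav2.2), β3 and α2δ subunits were loaded with calcium dye, preincubated with compound for 5 min, then depolarized with 50 mM KCl and read for 3 min by FDSS fluorescence. IC50 from six-point curves, normalized to KCl maximum and buffer minimum.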
In general terms: Calcium assays in cells follow changes in intracellular calcium, usually with a dye or a luminescent sensor.

The target of test [2] is T2, N-type calcium channel (Homo sapiens, UniProt Q00975).
T2 construct: expressed in transfected cells
T2 sequence (Q00975 whole entry): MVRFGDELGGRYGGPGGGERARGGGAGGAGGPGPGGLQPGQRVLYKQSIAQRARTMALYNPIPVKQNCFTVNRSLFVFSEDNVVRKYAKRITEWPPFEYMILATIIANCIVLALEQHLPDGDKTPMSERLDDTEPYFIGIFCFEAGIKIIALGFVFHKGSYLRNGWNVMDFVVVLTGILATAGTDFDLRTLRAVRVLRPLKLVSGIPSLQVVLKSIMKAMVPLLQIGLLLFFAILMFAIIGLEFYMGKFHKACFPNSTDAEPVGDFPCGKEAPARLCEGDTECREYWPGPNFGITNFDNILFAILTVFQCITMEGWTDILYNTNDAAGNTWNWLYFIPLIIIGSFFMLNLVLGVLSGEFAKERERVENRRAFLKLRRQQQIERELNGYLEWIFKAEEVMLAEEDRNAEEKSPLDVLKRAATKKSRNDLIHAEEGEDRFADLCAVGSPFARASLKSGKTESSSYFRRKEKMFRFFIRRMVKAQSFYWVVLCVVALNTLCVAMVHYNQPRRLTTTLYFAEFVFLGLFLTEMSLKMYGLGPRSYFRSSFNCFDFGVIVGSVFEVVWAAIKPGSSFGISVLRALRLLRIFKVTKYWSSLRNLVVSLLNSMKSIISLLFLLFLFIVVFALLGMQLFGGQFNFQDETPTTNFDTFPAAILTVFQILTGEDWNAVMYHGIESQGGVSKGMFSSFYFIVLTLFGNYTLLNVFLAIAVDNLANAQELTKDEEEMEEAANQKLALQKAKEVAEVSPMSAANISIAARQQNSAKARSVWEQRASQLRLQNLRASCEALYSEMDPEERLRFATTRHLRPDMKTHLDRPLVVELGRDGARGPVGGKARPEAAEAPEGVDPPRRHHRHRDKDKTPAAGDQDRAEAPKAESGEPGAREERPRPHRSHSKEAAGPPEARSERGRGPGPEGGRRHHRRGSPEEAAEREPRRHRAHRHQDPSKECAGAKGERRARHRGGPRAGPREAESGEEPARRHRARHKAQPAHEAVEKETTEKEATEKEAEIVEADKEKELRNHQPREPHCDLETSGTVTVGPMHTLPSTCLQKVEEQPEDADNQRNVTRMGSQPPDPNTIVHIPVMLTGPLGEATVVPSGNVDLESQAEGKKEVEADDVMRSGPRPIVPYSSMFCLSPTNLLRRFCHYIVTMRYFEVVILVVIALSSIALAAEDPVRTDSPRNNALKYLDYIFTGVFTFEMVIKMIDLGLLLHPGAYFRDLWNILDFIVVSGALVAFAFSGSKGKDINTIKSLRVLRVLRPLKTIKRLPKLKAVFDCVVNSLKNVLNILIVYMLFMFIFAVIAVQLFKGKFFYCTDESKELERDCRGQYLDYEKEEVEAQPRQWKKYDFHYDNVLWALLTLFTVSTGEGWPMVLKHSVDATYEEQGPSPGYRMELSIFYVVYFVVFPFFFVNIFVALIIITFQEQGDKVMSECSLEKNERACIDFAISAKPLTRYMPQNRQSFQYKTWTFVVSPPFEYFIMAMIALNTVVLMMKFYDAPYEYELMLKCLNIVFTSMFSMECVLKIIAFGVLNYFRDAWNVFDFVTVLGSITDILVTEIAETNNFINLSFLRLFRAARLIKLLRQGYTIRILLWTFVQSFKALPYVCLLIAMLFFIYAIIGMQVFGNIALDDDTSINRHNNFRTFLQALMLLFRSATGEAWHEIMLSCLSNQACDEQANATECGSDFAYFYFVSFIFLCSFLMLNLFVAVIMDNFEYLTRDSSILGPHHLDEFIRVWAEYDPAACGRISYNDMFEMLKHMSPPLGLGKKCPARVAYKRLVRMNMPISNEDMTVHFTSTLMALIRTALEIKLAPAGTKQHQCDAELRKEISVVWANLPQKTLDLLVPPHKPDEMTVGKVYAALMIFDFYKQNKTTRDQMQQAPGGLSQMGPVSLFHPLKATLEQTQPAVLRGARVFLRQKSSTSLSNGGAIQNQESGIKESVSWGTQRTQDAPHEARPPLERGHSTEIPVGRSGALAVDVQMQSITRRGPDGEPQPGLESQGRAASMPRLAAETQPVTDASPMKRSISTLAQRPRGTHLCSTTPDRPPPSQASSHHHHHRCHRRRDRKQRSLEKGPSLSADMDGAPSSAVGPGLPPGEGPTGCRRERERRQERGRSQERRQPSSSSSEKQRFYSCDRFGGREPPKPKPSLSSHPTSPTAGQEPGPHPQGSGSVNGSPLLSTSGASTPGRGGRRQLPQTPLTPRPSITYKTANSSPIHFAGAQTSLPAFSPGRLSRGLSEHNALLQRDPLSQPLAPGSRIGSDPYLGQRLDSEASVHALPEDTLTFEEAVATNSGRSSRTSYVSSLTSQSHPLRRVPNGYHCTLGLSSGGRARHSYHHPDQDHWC
T2 sequence (P54284 whole entry partner): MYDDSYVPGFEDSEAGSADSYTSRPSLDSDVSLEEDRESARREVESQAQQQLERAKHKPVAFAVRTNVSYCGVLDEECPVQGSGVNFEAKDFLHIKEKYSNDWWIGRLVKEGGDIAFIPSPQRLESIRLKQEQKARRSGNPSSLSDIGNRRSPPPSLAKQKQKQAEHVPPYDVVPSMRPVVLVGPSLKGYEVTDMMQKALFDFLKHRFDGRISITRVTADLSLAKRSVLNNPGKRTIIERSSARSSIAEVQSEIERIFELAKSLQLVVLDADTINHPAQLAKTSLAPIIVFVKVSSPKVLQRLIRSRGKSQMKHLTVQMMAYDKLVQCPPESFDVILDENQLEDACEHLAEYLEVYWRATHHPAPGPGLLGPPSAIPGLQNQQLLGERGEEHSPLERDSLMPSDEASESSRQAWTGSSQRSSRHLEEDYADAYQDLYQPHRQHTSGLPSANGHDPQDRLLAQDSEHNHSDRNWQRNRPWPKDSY
T2 sequence (P54289 25-956 partner limits assumed): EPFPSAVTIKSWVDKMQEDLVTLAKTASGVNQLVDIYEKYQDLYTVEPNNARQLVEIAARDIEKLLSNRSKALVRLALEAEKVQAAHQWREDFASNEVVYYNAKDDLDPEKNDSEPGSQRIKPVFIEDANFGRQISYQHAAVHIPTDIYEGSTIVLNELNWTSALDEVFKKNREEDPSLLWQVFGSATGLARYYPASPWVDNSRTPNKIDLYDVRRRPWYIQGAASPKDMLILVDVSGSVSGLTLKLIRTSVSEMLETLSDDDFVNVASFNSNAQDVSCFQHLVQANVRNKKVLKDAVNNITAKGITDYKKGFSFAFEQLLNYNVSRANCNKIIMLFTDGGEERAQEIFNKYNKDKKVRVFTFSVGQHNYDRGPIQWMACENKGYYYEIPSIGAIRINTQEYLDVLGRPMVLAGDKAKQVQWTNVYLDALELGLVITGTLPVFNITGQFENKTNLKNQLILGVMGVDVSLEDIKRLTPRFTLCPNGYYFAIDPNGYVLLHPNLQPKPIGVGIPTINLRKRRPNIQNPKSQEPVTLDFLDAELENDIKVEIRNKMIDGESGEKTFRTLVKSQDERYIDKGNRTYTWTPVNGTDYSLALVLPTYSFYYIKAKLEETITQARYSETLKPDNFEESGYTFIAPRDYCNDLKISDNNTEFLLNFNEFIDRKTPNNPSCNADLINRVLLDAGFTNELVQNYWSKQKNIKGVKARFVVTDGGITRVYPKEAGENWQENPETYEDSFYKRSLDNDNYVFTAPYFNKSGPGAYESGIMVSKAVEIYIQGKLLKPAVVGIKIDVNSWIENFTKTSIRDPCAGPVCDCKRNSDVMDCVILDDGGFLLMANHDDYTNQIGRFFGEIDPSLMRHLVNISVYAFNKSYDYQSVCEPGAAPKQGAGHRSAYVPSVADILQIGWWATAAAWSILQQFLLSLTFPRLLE
T2 sequence (P54289 957-1103 partner limits assumed): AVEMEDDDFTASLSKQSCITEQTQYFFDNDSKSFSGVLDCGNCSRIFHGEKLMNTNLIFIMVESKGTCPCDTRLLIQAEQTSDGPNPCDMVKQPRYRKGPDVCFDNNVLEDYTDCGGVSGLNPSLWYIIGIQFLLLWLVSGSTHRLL
Nature of the test: Automated electrophysiology assay (QPatch-HT whole-cell patch clamp). The format is cell-based. The method in brief:
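Whole-cell QPatch recordings used 10 mM Ba²⁺/TEA external solution and CsCl internal solution. Trains of 15 pulses at 5 Hz to +20 mV from −80 mV were applied; 1st- and 15th-pulse currents were normalized to control, with CdCl2 zeroing. […]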
In general terms: The patch-clamp technique gives a direct electrical read-out from membranes.

The mark [3] stands for this setting: high frequency (15th pulse of train, 5 Hz), read-out: QPatch at High Frequency % Inhibition.
The mark [4] stands for this setting: low frequency (1st pulse of train), read-out: QPatch at Low Frequency % Inhibition.

Like-named read-outs stand apart in the source and are kept apart here.

T1 sequence (Q00975 whole entry): as the sequence (Q00975 whole entry) above
T1 sequence (P54284 whole entry partner): as the sequence (P54284 whole entry partner) above
T1 sequence (P54289 25-956 partner limits assumed): as the sequence (P54289 25-956 partner limits assumed) above
T1 sequence (P54289 957-1103 partner limits assumed): as the sequence (P54289 957-1103 partner limits assumed) above

The term IC50 denotes the midpoint of a concentration-inhibition curve. Broadly, the inhibition is the relative decrease from the control value, in per cent. For the molecule `CCOc1ccccc1-n1nc2c(c1-c1ccc(Cl)cc1)CN(S(=O)(=O)C1CCCC1)C2` [Cpd 51, 3-(4-Chlorophenyl)-5-(cyclopentylsulfonyl)-2-(2-ethoxyphenyl)-2,4,5,6-tetrahydropyrrolo[3,4-c]pyrazole], the IC50 in test [1] came out at 5 nM. Also, the inhibition at 0.1 µM in test [2] (setting [3]) was found to be 47%; in test [2] (setting [4]) it was 37%.

As to `CCOc1ccccc1-n1nc2c(c1-c1ccc(Cl)cc1)CN(S(=O)(=O)C1CCCCC1)C2` [Cpd 52, 3-(4-Chlorophenyl)-5-(cyclohexylsulfonyl)-2-(2-ethoxyphenyl)-2,4,5,6-tetrahydropyrrolo[3,4-c]pyrazole], the IC50 in test [1] came to 2 nM. For the same molecule, the inhibition at 0.1 µM in test [2] (setting [3]) turned out to be 50%; in test [2] (setting [4]) it was 40%.

Take `CCc1ccccc1-n1nc2c(c1-c1ccc(Cl)cc1)CN(S(C)(=O)=O)C2` [Cpd 2, 3-(4-Chlorophenyl)-2-(2-ethylphenyl)-5-(methylsulfonyl)-2,4,5,6-tetrahydropyrrolo[3,4-c]pyrazole]: the IC50 in test [1] was 85 nM. Further, the inhibition at 1 µM in test [2] (setting [3]) is 22%; in test [2] (setting [4]), -9%.

On to `CCOc1ccccc1-n1nc2c(c1-c1ccc(Cl)cc1)CN(S(=O)(=O)N(C)C)C2` [Cpd 54, 3-(4-Chlorophenyl)-2-(2-ethoxyphenyl)-N,N-dimethyl-2,6-dihydropyrrolo[3,4-c]pyrazole-5(4H)-sulfonamide], for which the IC50 in test [1] came to 2 nM. Moreover, the inhibition at 0.1 µM in test [2] (setting [3]) stood at 46%; in test [2] (setting [4]), 36%.

`CS(=O)(=O)N1Cc2nn(-c3ccccc3OC(F)(F)F)c(-c3ccc(Cl)cc3)c2C1` [Cpd 20, 3-(4-Chlorophenyl)-5-(methylsulfonyl)-2-[2-(trifluoromethoxy)phenyl]-2,4,5,6-tetrahydropyrrolo[3,4-c]pyrazole]: the IC50 in test [1] was determined as 40 nM. Further, the inhibition at 1 µM in test [2] (setting [3]) worked out at 30%; in test [2] (setting [4]), 5%.

In the case of `COc1ccccc1-n1nc2c(c1-c1ccc(Cl)cc1)CN(S(=O)(=O)CC(F)(F)F)C2` [Cpd 36, 3-(4-Chlorophenyl)-2-(2-methoxyphenyl)-5-[(2,2,2-trifluoroethyl)sulfonyl]-2,4,5,6-tetrahydropyrrolo[3,4-c]pyrazole], the IC50 in test [1] was determined as 15 nM. Moreover, the inhibition at 0.25 µM was found to be 58% in test [2] (setting [3]) and 42% in test [2] (setting [4]).

Turning to `COC(=O)CCS(=O)(=O)N1Cc2nn(-c3ccccc3OC(F)(F)F)c(-c3ccc(Cl)cc3)c2C1` [Cpd 47, Methyl 3-{[3-(4-chlorophenyl)-2-[2-(trifluoromethoxy)phenyl]-2,6-dihydropyrrolo[3,4-c]pyrazol-5(4H)-yl]sulfonyl}propanoate], the IC50 in test [1] worked out at 31 nM. The inhibition at 0.1 µM in test [2] (setting [3]) amounted to 36%; in test [2] (setting [4]), 8%.
